Data from publication PMC5634595, “Properties of halogenated and sulfonated porphyrins relevant for the selection of photosensitizers in anticancer and antimicrobial therapies” (PLoS ONE, 2017).

Tests used:
[1] = n-Octanol/PBS partition coefficient, shake-flask; format: physicochemical; details: modified shake-flask
Method: The n-octanol/PBS partition coefficients were measured following shake-flask method with minor modifications. The photosensitizers were dissolved in n-octanol previously saturated with a solution of PBS. The same volume of PBS saturated with n-octanol was added and mixed on a vortex device and then the phases were separated by centrifugation. Next, the PBS/n-octanol phase was taken and diluted to obtain 0.5% of PBS/n-octanol content in the final solution. This solution was left into the ultrasonic bath. The fluorescence of each solution was measured using Fluorescence Spectrometer LS 55 (Perkin Elmer) and compared with calibration curve to obtain the concentration of the photosensitizer. Partition coefficients were calculated from the ratio coct/cPBS, where coct and cPBS are the concentrations of the porphyrin derivatives in the n-octanol and in the PBS.

[2] = tested on: CT26 cells; assay: Dark cytotoxicity, MTT; format: cell-based, murine; details: CT26, 100 μM, 24 h
Method: (§1) The studies were performed on human lung adenocarcinoma (A549), murine colon carcinoma (CT26) and murine endothelial/vascular epithelium (2H11) cell lines. A549, CT26 and 2H11 cells were grown in full-strength DMEM with 4.5 g/L glucose, L-glutamine, sodium pyruvate and 3.7 g/L NaHCO3 (BioTech) with addition of 10% fetal bovine serum (BioTech, Poland) and supplemented by antibiotics (penicillin/streptomycin). Before the experiments, the cells were washed with PBS, removed by trypsinization, then re-plated into microplate (or culture flask) with appropriate cells density and maintained in a humidified atmosphere at 37 °C and 5% CO2.
(§2) MTT cytotoxicity assay (which determines the mitochondrial activity), based upon the ability of living cells to reduce (3-(4,5-dimethylthiazol-2-yl)2,5-diphenyl tetrazolium bromide (MTT) into formazan was used to assess photosensitizer-mediated cytotoxicity. Two identical 96-well plates with A549, CT26 or 2H11 cell cultures seeded on 96-plate microplate (10^4 per well) were used for each experiment. When the cells were attached to the plates, PS solution in growth medium (DMSO<0.5%) at concentrations between 0.1 to 100 μM was added to the culture. Treated cultures were incubated for optimal time (estimated experimentally) at 37°C in the dark. […] Data were expressed as mean absorbance value of six samples and standard error of the mean.

[3] = tested on: 2H11 cells; assay: Dark cytotoxicity, MTT; format: cell-based, murine; details: 2H11, 100 μM, 24 h
Method: as §1, §2

[4] = tested on: A549 cells; assay: Dark cytotoxicity, MTT; format: cell-based, human; details: A549, 100 μM, 24 h
Method: as §1, §2

[5] = molecular target: HSA (Homo sapiens, UniProt P02768); assay: Binding to HSA by fluorescence quenching (Stern-Volmer, Scatchard)
Method: The binding of the PS to HSA was studied by spectrofluorometry at room temperature. An aqueous (phosphate buffer saline, PBS) solution of HSA was titrated with varying concentrations of the respective porphyrin solutions. HSA was excited at 295 nm and fluorescence was recorded between 300 nm and 400 nm. The systematic lowering of HSA fluorescence with increasing photosensitizer concentrations was noted and used in the determination of the binding constants and the number of binding sites on HSA according to Scatchard equation. The changes in HSA fluorescence intensity were related to porphyrin concentrations by the Stern-Volmer relationship. The binding constant (Kb) of PS to lipoproteins was also determined using the spectroscopic titration method. The sets of steady-state emission spectra of PBS solutions with different concentrations of HDL and LDL, to which the porphyrin (5 μM) was added were measured. The fluorescence intensity of the dye increased upon its partitioning into the lipoproteins. To obtain Kb, F versus [L] data were plotted and fitted to by a nonlinear regression routine.

[6] = Fluorescence emission and fluorescence quantum yield (comparative method); format: physicochemical; details: EtOH, TPP as standard
Method: Fluorescence emission spectra were recorded from 550 nm to 750 nm with excitation at Soret band (λ≈420 nm). The excitation and emission slits were both set to 8 nm and scanning speed to 50 nm/min. Fluorescence spectra were recorded with a Perkin Elmer Fluorescence Spectrometer LS 55. Determination of fluorescence quantum yields: ΦF of studied photosensitizers was determined using the comparative method according to the equation: ΦF=ΦFStd⋅FAStdn^2/FStdAnStd2, (1) where F and FStd are the areas under the fluorescence emission curves of the sample and the standard, A and AStd are the absorbance of the sample and the standard and n are the refractive indices of the solvent used for the sample and the standard, respectively. Commercially available tetraphenylporphyrin TPP (Std) (ΦF = 0.10 in toluene) was employed as the standard. The absorbance of the solutions at the excitation wavelength was in the range of 0.02. Singlet oxygen quantum yields were determined based on the relative phosphorescence emissions of singlet oxygen generated by a reference and by each one of the porphyrins, using a method described elsewhere. Briefly, a modified Applied Photophysics LKS.60 flash photolysis spectrometer with a Hamamatsu NIR photomultiplier for detection and HP Infinium (500 MHz, 1GSas^-1) or Tektronix DPO 7254 (2.5 GHz, 40GSas^-1) oscilloscopes were used. The adaptation of this spectrometer allowed for the detection of singlet oxygen phosphorescence at room temperature. This emission was detected using a Hamamatsu R5509–42 photomultiplier, cooled to 193 K in a liquid nitrogen chamber. […] The modification of the spectrometer for time-resolved singlet oxygen phosphorescence measurements involved the interposition of a Melles Griot cold mirror (03MCS005), which reflects more than 99% of the incident light in the 400–700 nm range, and of a Scotch RG665 filter. A 600 line diffraction grating was mounted in place of a standard one. […] Solutions of photosensitizers were prepared with matched absorbances close to 0.2 at 355 nm. […]

Chain of HSA (P02768 25-609): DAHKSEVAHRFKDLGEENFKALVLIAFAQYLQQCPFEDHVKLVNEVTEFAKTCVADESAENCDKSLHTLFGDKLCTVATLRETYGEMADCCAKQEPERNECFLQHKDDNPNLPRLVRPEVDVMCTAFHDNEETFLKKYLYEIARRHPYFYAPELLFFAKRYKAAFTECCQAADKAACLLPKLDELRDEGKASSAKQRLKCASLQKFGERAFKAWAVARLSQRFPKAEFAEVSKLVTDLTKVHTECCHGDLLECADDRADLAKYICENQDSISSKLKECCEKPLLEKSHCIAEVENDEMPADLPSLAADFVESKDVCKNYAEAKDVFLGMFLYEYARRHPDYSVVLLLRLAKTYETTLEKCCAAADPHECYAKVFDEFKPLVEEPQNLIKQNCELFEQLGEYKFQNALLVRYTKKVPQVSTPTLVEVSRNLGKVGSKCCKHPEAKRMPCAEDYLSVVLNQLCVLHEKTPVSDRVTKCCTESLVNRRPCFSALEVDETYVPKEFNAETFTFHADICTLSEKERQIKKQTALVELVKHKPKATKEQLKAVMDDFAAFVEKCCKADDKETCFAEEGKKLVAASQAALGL

## O=S(=O)(O)c1ccc(F)c(-c2c3nc(c(-c4c(F)ccc(S(=O)(=O)O)c4F)c4ccc([nH]4)c(-c4c(F)ccc(S(=O)(=O)O)c4F)c4nc(c(-c5c(F)ccc(S(=O)(=O)O)c5F)c5ccc2[nH]5)C=C4)C=C3)c1F [F2POH, 5,10,15,20-tetrakis(2,6-difluoro-3-sulfophenyl)porphyrin]
[1]
  logP: -1.74
[2]
  Cytotoxicity in the dark: 25%
[3]
  Cytotoxicity in the dark: 25%
[4]
  Cytotoxicity in the dark: 25%
[5]; HSA fluorescence quenching, PBS, room temperature
  KSV (Stern-Volmer constant), HSA: 2.24 10^5M^-1
[5]; Scatchard analysis
  n (number of binding sites), HSA: 1
[6]
  Fluorescence quantum yield ΦF: 0.040
